In patent publication US11471458B2, “Diacylglycerol acyl transferase 2 inhibitor” (Pfizer Inc., priority 2019, dated 2022):
Converted amounts (≈) assume the structure as drawn. Counter-ions that a name gives are not always drawn.

Experiments:
human DGAT2 (hDGAT2) = human DGAT2 (hDGAT2) (Homo sapiens (Human), UniProt Q96PD7); test: In vitro DGAT2 assay, determination of IC50 values for DGAT2 inhibitors; format: biochemical; settings: hDGAT2 membrane fraction; geometric mean
Description: Recombinant baculovirus for the FLAG-tagged hDGAT2 was generated in SF9 insect cells using Bac-to-Bac baculovirus expression system (Invitrogen) according to the manufacturer's protocol. For the expression of hDGAT2, SF9 cells (20 L) grown in Sf900II media were infected with hDGAT2 baculovirus at a multiplicity of infection of 1 in a Wave Bioreactor System 20/50P wave bag (GE Healthcare). After 40 hours of infection, the cells were then harvested by centrifugation at 5,000×g. The cell pellets were washed by resuspending in phosphate buffered saline (PBS) and collected by centrifugation at 5,000×g. The cell paste was flash frozen in liquid N2 and stored at −80° C. until needed. All operations below were at 4° C. unless otherwise noted. The cells were resuspended in lysis buffer (50 mM Tris-HCl, pH 8.0, 250 mM sucrose) including 1 mM ethylenediaminetetraacetic acid (EDTA) and the complete protease inhibitor cocktail (Roche Diagnostics) at a ratio of 3 mL buffer per 1 g cell paste. The cells were lysed by dounce homogenizer. The cell debris was removed by centrifugation at 1,000×g for 20 min, and the supernatant was centrifuged at 100,000×g for 1 hour. The resulting pellet was rinsed three times by filling ultracentrifuge tubes to the top with ice cold PBS before decanting. The washed pellet was resuspended with gentle stirring for 1 hour in lysis buffer containing 8 mM 3-[(3-cholamidopropyl)dimethylammonio]-1-propanesulfonate (CHAPS) at a ratio of 1 mL buffer per 1 g of original cell paste and centrifuged again at 100,000×g for 1 hour. The resulting supernatant was aliquotted, flash frozen in liquid N2, and stored at −80° C. until use.
To 1 μL of compounds dissolved in 100% DMSO and spotted at the bottom of each well, 5 μL of 0.04% bovine serum albumin (BSA) (fatty acid free, Sigma Aldrich) was added and the mixture was incubated at room temperature for 15 minutes. hDGAT2 membrane fractions were diluted in 100 mM Hepes-NaOH, pH 7.4, 20 mM MgCl2 containing 200 nM methyl arachidonyl fluorophosphonate (Cayman Chemical; dried from ethyl acetate stock solution under argon gas and dissolved in DMSO as 5 mM stock). 10 μL of this enzyme working solution was added to the plates and incubation continued for 2 hours at room temperature. […] Plates were centrifuged at 2,000×g for 1 minute in an Allegra 6R Centrifuge (Beckman Coulter) and then were sealed again with fresh covers before reading in a 1450 Microbeta Wallac Trilux Scintillation Counter (Perkin Elmer). DGAT2 activity was measured by quantifying the generated product [^14C]tridecanoylglycerol in the upper organic phase. […]

[1] = Determination of pKa (capillary electrophoresis, Analiza, Inc.); format: physicochemical; settings: mean, read-out: Basic pKa (most basic pKa)
[2] = High throughput determination of intrinsic clearance in human hepatocytes; format: in vitro ADME; settings: human, pooled cryopreserved human hepatocytes (10 donors), high throughput human hepatocyte assay; 0.5 million cells/mL, 1 μM test compound, 37° C.; mean +/− Std Dev; read-out: CLint (μL/min/10^6 cells) (+/− Std Dev)
Description: The incubation was carried out at 37° C. […] The samples were centrifuged (Eppendorf, Hauppauge, N.Y.) at 3000 rpm for 5 min at 4° C.

[3] = Intrinsic clearance in human liver microsomes; format: in vitro ADME; settings: human, pooled human liver microsomes (50 donors), pH 7.4, human liver microsome assay; 1 μM test compound, 0.806 mg/mL protein, NADPH, pH 7.4, 37° C.; mean +/− STD Dev; read-out: CLint (μL/min/mg) (+/− STD Dev)
Description: The incubations were conducted at 37° C. […] (Sorvall RC 3C Plus, Thermo Scientific, Waltham, Mass.).

[4] = target: DGAT2 in human hepatocytes (Homo sapiens (Human), UniProt Q96PD7); test: Determination of IC50 values for DGAT2 inhibitors in human hepatocytes; format: cell-based; settings: cryopreserved human hepatocytes, DGAT1 inhibitor present; geometric mean
Description: For evaluation of the effects of DGAT2 inhibitors in a cell-based setting, cryopreserved human hepatocytes (Lot DOO, Celsis, Baltimore, Md.) were thawed and plated onto type I collagen-coated plates according to the manufacturer's instructions. After 18 hours overnight recovery period, the cells were overlayed with media containing 250 μg/mL Geltrex Basement Membrane Matrix (Thermo Fisher). The following day, media was aspirated and replaced with serum-free Williams Media E (Thermo Fisher) containing 400 μM sodium dodecanoate (Sigma-Aldrich, St. Louis, Mo.) and 2 mM GlutaMAX (Thermo Fisher). […] DGAT2 inhibitors were then added to the desired final concentration. After a 15 minute preincubation, 0.2 μCi [^14C(U)]-glycerol (Perkin Elmer) was added to each well followed by a 3 hour incubation. At this point the media was removed, and the cells lysed via orbital shaking in isopropyl alcohol: tetrahydrofuran (9:1) for 15 minutes prior to centrifugation at 3000 rpm for 10 minutes. Radiolabeled lipids were resolved using a solvent system by thin layer chromatography with the solvent consisting of hexanes:diethyl ether:glacial acetic acid (75:23:2, v/v/v). […] The half maximal inhibitory concentrations (IC50 values) were determined by nonlinear regression analysis of the % inhibition dose response curve using GraphPad Prism (GraphPad Software, Inc., La Jolla, Calif.). […]

[5] = Thermodynamic solubility in various biorelevant media; format: physicochemical; settings: PBS, pH 6.8; crystalline solid
Description: The solubility of active pharmaceutical ingredients is an important characteristic in determining biological performance and ease of formulation during drug development, with high solubility being preferred (Klein, S. 2010, The AAPS Journal, 12, 397-406; Di, L., et al 2012, Drug Disc. Today, 17. 486-495). A test sample of crystalline solid (˜7 mg) was combined in a vial with 1 mL of the relevant buffer solution and the mixture vortexed to combine. If the solid dissolved completely, additional solid was added with vortexing until a saturated solution was obtained. The saturated solution/solid mixture was capped and subjected to temperature cycling as follows: 1 min at 25° C., 8 h at 40° C., 5 h at 15° C. and 12 h at 25° C. The mixture was filtered in a centrifugal filtration device (0.22 μm PVDF filter, MilliporeSigma, Milwaukee, Wis.) at 13,000 rpm and the concentration of the test compound in the filtrate was determined by HPLC/UPLC with reference to a three point standard curve. Phosphate buffered saline (PBS, pH 6.8, 50 mM phosphate buffer, 250 mM NaCl). Simulated gastric fluid (SGN pH 1.2, USP recipe). Fasted state simulated intestinal fluid (FaSSIF, 3 mM sodium taurocholate, 0.75 mM phospholipid from soybean lecithin, 50 mM phosphate buffer, ionic strength adjusted to 250 mM with NaCl, pH 6.8) and fed state simulated intestinal fluid (FeSSIF, 15 mM sodium taurocholate, 3.75 mM phospholipid from soybean lecithin, 144 mM acetic acid, 50 mM phosphate buffer, ionic strength adjusted to 250 mM with NaCl, pH 6.8).

[6] = system: Western diet fed Sprague-Dawley rats; test: Rat western diet model: in vivo effects on plasma and hepatic triglyceride levels; settings: compared with chow-fed vehicle animals
From the text: The rat western diet model was utilized to assess the effects of DGAT2 inhibitor treatment on plasma triglyceride production and hepatic triglyceride content in vivo. Male Sprague-Dawley rats were housed under standard laboratory conditions on a 12-hour light, 12-hour dark cycle (lights on at 06:00). Two weeks prior to study start animals were placed on a high-fat, high sucrose, high-cholesterol diet (D12079b, provided by Research Diets, New Brunswick, N.J.). This diet provides ˜43% of kilocalories from carbohydrate and ˜41% of kilocalories from fat. Example 4 was administered orally as a solution (10 mL/kg dosing volume) in 0.5% methylcellulose in deionized water, pH 7.0-7.5 (methylcellulose was obtained from Sigma-Aldrich, St. Louis, Mo.). […] Plasma TG levels were determined using a Roche Hitachi Chemistry analyzer according to the manufacturer's instructions (Roche Diagnostics Corporation, Indianapolis, Ind.) and data was analyzed using GraphPad Prism (GraphPad Software, Inc., La Jolla, Calif.). […] The triglyceride assay was performed through absorbance and reported as milligrams per deciliter. […]
FIG. 4 plots the multiple dose effects of Example 4 on Plasma Triglyceride in Western Diet Fed Sprague-Dawley Rats where plasma triglyceride levels were determined from blood drawn from the lateral tail vein 2-hours following the final dose of Example 4. […]

Chain of human DGAT2 (hDGAT2) (Q96PD7 whole entry): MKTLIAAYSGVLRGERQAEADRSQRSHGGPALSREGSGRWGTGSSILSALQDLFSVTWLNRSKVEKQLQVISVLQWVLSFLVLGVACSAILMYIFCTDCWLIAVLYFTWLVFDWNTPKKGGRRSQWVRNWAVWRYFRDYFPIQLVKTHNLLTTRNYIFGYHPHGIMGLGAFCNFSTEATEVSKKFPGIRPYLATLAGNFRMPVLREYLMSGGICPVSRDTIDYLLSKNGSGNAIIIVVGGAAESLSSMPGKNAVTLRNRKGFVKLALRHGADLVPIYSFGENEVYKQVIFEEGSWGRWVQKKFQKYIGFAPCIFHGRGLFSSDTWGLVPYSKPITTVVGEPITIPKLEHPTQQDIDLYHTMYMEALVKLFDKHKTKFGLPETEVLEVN
Chain of DGAT2 in human hepatocytes (Q96PD7 whole entry): as above

Row | Structure (SMILES) | IC50 (human DGAT2 (hDGAT2)) [nM] | pKa [1] | hepatocyte CLint at 1 μM [2] [µL/min/1e6 cells] | microsomal CLint at 1 μM [3] [µL/min/mg] | IC50 [4] [nM] | Solubility [5] [µg/mL] | circulating triglyceride response, resulting levels [6]
1 | CCOc1cccnc1Oc1cncc(-c2ncc(C(=O)N[C@@H]3CNCC[C@@H]3F)cn2)c1 [Example 3, 2-{5-[(3-Ethoxypyridin-2-yl)oxy]pyridin-3-yl}-N-[(3R,4S)-4-fluoropiperidin-3-yl]pyrimidine-5-carboxamide, bis(trifluoroacetate) Salt] | 40 | 8.1 | < 1.9 | < 7 | 23 | – | –
2 | CCOc1cccnc1Oc1cncc(-c2ncc(C(=O)N[C@@H]3CNC[C@@H](F)C3)cn2)c1 [Example 4, 2-{5-[(3-Ethoxypyridin-2-yl)oxy]pyridin-3-yl}-N-[(3S,5S)-5-fluoropiperidin-3-yl]pyrimidine-5-carboxamide] | – | – | – | – | – | 580 (≈ 1320 µM) | approached those of the chow-fed vehicle animals
